Assay results from US10456387B2, “Phacetoperane for treating of attention deficit hyperactivity disorder” (NLS PHARMA AG, priority 2011, dated 2019).

Assays:
[1] = tested on: young Wistar rats; test: T-maze test, a model of ADHD (ability to wait / impulsiveness); format: in vivo, rat; conditions: for Efficacy compared with methylphenidate in the ability to wait: BLK-010 1 mg/kg IP vs methylphenidate 3 mg/kg IP; for Effect on ability to wait relative to the control: administered IP before the test, BLK-010 1 mg/kg; for Effect on ability to wait relative to the control / Mean, Medication (choices of the large reward deferred by 30 s) / Mean, Cont-Post (choices of the large reward deferred by 30 s): methylphenidate 3 mg/kg; for Mean, Medication (choices of the large reward deferred by 30 s): medication sessions, IP 30 min before test; for Mean, Cont-Post (choices of the large reward deferred by 30 s): post-medication control sessions, one day after medication session 2, phacetoperane 1 mg/kg IP; for Mean, Cont-Pre (choices of the large reward deferred by 30 s): pre-medication control sessions, before any drug, male juvenile Wistar rats, n = 6, sessions of 5 tests
[2] = tested on: young Wistar rats; conditions: background description of the model; cited from earlier work

SMILES | Efficacy compared with methylphenidate in the ability to wait [1] | Efficacy compared with methylphenidate in the ability to wait ([1]; listed as BLK-010) | Improvement of impulsiveness, animals responding ([1]; BLK-010 1 mg/kg IP, n = 6) | Effect on ability to wait relative to the control [1] | Mean, Medication (choices of the large reward deferred by 30 s) ([1]; phacetoperane 1 mg/kg, n = 6) | Habituation (before and after treatment) ([1]; phacetoperane 1 mg/kg) | Mean, Cont-Post (choices of the large reward deferred by 30 s) ([1]; n = 6) | Mean, Cont-Pre (choices of the large reward deferred by 30 s) [1] | Effect on number of times the large but deferred reward is chosen [2]
CC(=O)OC(c1ccccc1)C1CCCCN1 (racemic) [Phacetoperane, threo diastereoisomer of alpha-phenyl-2-piperidinemethanol acetate] | always found to be more effective than methylphenidate | significantly and statistically more effective than methylphenidate | found in all the animals | improve the ability to wait | 4.17 | does not lead to any habituation | 0.33 | 1.17 | –
COC(=O)C(c1ccccc1)C1CCCCN1 (stereo not shown) [Methylphenidate, methylphenidate] | – | – | – | improve the ability to wait | 3.67 | – | 0.83 | 1.17 | seems to increase the number of times the large but deferred reward is chosen
